The target in assay [1] is T1, CK1γ3 (Homo sapiens, UniProt Q9Y6M4).
T1 construct: purchased Eurofins
Briefly: scanMAX binding assay, CK1γ3. The note with it: Percent of Control; legend and method: 1 μM; read-out: CK1γ3 PoC @ 1 µM. The source says:
(§1) As described previously, this commercial assay platform screens against 403 WT human kinases in binding assays and provides PoC values ([73]).

Assay [2] addresses T2, CK1γ2 (Homo sapiens, UniProt P78368).
T2 construct: purchased Eurofins
Briefly: scanMAX binding assay, CK1γ2. The note with it: Percent of Control; legend and method: 1 μM; read-out: CK1γ2 PoC @ 1 µM.
From the text: as §1

The target in a further assay is T3, CLK2 (Homo sapiens, UniProt P49760).
T3 construct: purchased Eurofins DiscoverX Corporation (scanMAX)
Briefly: scanMAX binding assay, CLK2. The note with it: Percent of Control; legend and method: 1 μM; read-out: CLK2 PoC @ 1 µM.
From the text: as §1

Another assay concerns the target T4, CSNK1E (Homo sapiens, UniProt P49674).
T4 construct: purchased Eurofins DiscoverX Corporation
Briefly: scanMAX binding assay, CSNK1E. The note with it: Percent of Control; legend and method: 1 μM; read-out: CSNK1E PoC @ 1 µM.
From the text: as §1

Another assay concerns the target T5, CIT (Homo sapiens, UniProt O14578).
T5 construct: purchased Eurofins DiscoverX Corporation
Briefly: scanMAX binding assay, CIT. The note with it: Percent of Control; legend and method: 1 μM; read-out: CIT PoC @ 1 µM.
From the text: as §1

Assay [3] has as its target T2, CK1γ2. Briefly: Eurofins kinase enzymatic radiometric assay, CK1γ2. It is filed as biochemical. The note with it: Km = ATP, 9-pt curve in duplicate. The source says:
(§2) Details related to the substrate used, protein constructs, controls, and assay protocol for each kinase assay are included on the Eurofins website: https://www.eurofinsdiscoveryservices.com/.

For the next assay, the target named is CSNK1D (Homo sapiens, UniProt P48730). The assay can be described thus: scanMAX binding assay, CSNK1D. The note with it: Percent of Control; legend and method: 1 μM; read-out: CSNK1D PoC @ 1 µM.
From the text: as §1

The target in another assay is T6, CK1γ2 (NLuc-CK1γ2) (Homo sapiens, UniProt P78368).
T6 construct: host or cells: HEK293T
Briefly: NanoBRET cellular target engagement assay, NLuc-CK1γ2 in HEK293T cells. In kind it is cell-based. The note with it: live HEK293T cells, 0.5 μM tracer K-10; read-out: NL-CK1γ2 NanoBRET IC50. As for the experimental part:
HEK293T cells (hypotriploid, fetal) were purchased from ATCC. These cells were grown in Dulbecco’s modified Eagle’s medium (Gibco) supplemented with 10% (v/v) fetal bovine serum (Corning). They were incubated in 5% CO2 at 37 °C and passaged every 72 h with trypsin and not allowed to reach confluency. Constructs for NanoBRET measurements of CK1γ2 (NLuc-CK1γ2) and GSK3β (NLuc-GSK3β) were kindly provided by Promega. NanoBRET assays were carried out as described previously ([74]). Preferred NLuc orientations, both N-terminal in this case, are indicated in parentheses after each construct. Assays were carried out in dose–response as described by the manufacturer using 0.5 μM of tracer K-10 for CK1γ2 and 0.063 μM of tracer K-8 for GSK3β. Two biological replicates were executed with two technical replicates to produce the graphs with error bars shown in Figures 6E, 7E, 8, A and B. Tracer titration curves for these kinases that motivated our tracer selection and working concentration can be found on the Promega website.
A general note: In BRET a luciferase serves as donor, and the signal depends on an acceptor being close.

Another assay deals with T7, IRAK1 (Homo sapiens, UniProt P51617).
T7 construct: purchased Eurofins DiscoverX Corporation
The assay can be described thus: scanMAX binding assay, IRAK1. The note with it: Percent of Control; legend and method: 1 μM; read-out: IRAK1 PoC @ 1 µM.
From the text: as §1

A further assay deals with β-catenin. Briefly: W. blot of β-catenin stabilization after WNT3A in RKO cells. It is filed as cell-based, human. The note with it: RKO cells pretreated 1 h, WNT3A 30 or 60 min, compared with dimethyl sulfoxide control. The procedure:
(§3) Standard W. blot techniques were utilized and performed as previously described ([15], [43]). Briefly, cells were lysed in RIPA lysis buffer, flash frozen on dry ice, and then cleared at high speed for 10 min at maximum speed. Protein concentration was determined by a bicinchoninic acid assay following kit specifications. Samples were balanced, and NuPAGE 4× SDS loading buffer (Thermo Fisher Scientific; catalog no.: NP0007) containing DTT was added to each sample and heated for 10 min at 70 °C. Samples were run on a NuPAGE 4 to 12% Bis–Tris Protein Gel (Thermo Fisher Scientific; catalog no.: NP0321) and then transferred to a nitrocellulose membrane. The membrane was then blocked and incubated overnight with primary antibody at 4 °C with rotation, washed with Tris-buffered saline with Tween-20, incubated with secondary antibody, washed with Tris-buffered saline with Tween-20, and imaged. Images were taken using a LiCOR Odyssey CLx imager and quantified with LiCOR software (LiCOR Biosciences). All antibodies were used at a concentration of 1:1000, with the exception of loading controls, which were used at 1:10,000. […]

In the next assay the target is T8, DYRK1B (Homo sapiens, UniProt Q9Y463).
T8 construct: purchased Eurofins DiscoverX Corporation
The assay can be described thus: scanMAX binding assay, DYRK1B. The note with it: Percent of Control; legend and method: 1 μM; read-out: DYRK1B PoC @ 1 µM.
From the text: as §1

The target of assay [4] is T1, CK1γ3. The assay can be described thus: Eurofins kinase enzymatic radiometric assay, CK1γ3. In kind it is biochemical. The note with it: Km = ATP, 9-pt curve in duplicate.
From the text: as §2

Another assay addresses T9, GSK3α (Homo sapiens, UniProt P49840).
T9 construct: purchased Eurofins DiscoverX Corporation
Briefly: scanMAX binding assay, GSK3α. The note with it: Percent of Control; legend and method: 1 μM.
From the text: as §1

The next assay relates to LRP6. Briefly: W. blot of LRP6 phosphorylation after WNT3A in RKO cells. The note with it: RKO cells pretreated 1 h. In kind it is cell-based, human. The procedure: as §3
For a further assay, the target named is T10, GSK3β (Homo sapiens, UniProt P49841).
T10 construct: purchased Eurofins DiscoverX Corporation
Briefly: scanMAX binding assay, GSK3β. The note with it: Percent of Control; legend and method: 1 μM.
From the text: as §1

pIC50: −log10 of the molar value. Values joined by “and” are separate entries in the source; they are usually repeats but may differ in a detail not shown here. Equal values may be shown once.

T1 sequence (Q9Y6M4 whole entry): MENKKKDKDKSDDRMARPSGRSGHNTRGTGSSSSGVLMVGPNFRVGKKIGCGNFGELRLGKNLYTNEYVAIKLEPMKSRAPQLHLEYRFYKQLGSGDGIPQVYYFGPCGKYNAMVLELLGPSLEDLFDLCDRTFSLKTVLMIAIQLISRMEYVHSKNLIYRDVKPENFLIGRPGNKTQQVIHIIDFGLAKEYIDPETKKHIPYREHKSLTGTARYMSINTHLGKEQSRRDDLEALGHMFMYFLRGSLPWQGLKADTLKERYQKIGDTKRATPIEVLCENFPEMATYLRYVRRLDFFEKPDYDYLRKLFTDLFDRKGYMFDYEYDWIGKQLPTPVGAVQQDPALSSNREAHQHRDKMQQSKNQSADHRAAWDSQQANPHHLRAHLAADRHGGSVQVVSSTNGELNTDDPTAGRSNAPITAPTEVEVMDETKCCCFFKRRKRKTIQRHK
T2 sequence (P78368 whole entry): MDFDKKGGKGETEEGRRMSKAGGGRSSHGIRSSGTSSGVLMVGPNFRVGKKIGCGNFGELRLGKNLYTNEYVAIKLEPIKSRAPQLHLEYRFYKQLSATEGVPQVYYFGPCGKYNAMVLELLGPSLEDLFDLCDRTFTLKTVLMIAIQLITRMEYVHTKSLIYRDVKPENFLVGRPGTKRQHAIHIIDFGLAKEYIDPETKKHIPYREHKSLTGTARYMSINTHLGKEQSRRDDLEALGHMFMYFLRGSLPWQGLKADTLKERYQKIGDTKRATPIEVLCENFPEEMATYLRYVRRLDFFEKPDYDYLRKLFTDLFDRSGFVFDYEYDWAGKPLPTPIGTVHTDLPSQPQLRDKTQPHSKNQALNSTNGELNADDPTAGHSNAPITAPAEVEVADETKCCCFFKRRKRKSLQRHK
T3 sequence (P49760 whole entry): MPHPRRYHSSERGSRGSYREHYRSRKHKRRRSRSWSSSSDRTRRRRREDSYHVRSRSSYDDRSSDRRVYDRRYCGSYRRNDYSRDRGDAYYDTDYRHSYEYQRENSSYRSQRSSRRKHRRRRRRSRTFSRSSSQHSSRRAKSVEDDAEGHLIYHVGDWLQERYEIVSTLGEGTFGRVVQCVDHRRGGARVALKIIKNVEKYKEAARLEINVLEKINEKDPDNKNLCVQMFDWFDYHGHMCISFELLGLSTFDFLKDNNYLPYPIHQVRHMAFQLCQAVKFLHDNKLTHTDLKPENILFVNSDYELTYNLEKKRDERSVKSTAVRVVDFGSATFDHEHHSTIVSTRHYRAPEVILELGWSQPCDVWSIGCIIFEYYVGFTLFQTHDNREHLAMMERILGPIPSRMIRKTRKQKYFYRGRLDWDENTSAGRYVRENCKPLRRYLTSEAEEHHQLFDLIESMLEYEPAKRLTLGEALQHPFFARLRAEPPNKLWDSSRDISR
Chain of CSNK1D (P48730 whole entry): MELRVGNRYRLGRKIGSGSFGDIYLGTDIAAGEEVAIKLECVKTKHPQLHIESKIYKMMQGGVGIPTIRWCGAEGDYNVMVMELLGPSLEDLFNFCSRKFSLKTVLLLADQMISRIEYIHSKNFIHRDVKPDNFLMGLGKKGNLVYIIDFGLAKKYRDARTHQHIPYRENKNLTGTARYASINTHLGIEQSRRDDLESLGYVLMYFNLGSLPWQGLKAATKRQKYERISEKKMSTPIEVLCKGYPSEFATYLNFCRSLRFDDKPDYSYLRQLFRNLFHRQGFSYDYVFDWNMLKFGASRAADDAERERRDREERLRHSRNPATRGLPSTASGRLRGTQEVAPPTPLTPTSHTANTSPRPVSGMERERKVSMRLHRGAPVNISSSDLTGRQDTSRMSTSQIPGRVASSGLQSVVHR
T5 sequence (O14578 whole entry): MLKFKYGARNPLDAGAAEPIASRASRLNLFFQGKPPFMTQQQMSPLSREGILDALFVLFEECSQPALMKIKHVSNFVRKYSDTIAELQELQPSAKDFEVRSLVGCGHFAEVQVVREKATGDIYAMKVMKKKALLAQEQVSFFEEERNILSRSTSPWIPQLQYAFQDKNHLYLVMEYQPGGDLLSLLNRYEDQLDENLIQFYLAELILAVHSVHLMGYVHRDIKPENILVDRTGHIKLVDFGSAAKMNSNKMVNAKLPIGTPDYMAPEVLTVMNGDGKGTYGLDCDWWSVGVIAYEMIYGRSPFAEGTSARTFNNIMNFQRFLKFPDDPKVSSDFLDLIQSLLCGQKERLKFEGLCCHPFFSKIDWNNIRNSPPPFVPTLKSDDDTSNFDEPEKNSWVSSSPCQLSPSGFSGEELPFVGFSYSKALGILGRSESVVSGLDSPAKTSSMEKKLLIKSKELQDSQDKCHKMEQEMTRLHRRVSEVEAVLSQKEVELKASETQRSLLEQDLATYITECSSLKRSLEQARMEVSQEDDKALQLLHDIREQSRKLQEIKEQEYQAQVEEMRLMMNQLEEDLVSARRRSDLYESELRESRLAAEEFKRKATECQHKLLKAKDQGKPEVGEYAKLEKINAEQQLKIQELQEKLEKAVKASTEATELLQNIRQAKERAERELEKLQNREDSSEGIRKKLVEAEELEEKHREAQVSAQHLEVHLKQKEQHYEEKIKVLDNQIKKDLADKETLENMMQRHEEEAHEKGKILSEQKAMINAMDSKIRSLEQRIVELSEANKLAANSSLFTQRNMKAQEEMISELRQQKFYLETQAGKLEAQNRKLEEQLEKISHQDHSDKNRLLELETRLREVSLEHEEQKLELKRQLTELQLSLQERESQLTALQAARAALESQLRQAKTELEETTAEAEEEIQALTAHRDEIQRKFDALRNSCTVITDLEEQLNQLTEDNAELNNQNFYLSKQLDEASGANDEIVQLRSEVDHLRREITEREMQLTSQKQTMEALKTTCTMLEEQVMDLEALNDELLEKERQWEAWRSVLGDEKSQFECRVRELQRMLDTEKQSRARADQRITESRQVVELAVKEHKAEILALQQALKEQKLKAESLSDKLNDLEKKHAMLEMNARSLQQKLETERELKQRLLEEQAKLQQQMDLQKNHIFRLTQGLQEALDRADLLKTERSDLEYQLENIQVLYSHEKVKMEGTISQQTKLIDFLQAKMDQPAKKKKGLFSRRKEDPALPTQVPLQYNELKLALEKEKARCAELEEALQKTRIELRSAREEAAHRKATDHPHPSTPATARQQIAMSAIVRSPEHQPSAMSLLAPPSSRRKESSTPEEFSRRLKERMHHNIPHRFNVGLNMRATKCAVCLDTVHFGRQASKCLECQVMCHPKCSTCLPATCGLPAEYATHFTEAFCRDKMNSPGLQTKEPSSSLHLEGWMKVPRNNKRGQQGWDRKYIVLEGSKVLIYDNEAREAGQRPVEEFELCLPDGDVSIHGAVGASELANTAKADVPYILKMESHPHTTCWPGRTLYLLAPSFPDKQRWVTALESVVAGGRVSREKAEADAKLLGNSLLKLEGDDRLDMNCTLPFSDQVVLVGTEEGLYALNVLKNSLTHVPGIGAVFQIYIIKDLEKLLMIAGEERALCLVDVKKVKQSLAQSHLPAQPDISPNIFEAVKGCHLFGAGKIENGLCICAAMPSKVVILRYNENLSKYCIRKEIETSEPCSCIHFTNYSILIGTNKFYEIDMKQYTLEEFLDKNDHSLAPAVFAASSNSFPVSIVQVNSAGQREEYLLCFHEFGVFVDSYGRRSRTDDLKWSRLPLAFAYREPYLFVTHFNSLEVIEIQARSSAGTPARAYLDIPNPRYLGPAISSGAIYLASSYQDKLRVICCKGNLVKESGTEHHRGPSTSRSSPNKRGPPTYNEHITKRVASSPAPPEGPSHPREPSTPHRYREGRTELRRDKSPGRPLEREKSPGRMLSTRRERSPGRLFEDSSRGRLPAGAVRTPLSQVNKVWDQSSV
T9 sequence (P49840 whole entry): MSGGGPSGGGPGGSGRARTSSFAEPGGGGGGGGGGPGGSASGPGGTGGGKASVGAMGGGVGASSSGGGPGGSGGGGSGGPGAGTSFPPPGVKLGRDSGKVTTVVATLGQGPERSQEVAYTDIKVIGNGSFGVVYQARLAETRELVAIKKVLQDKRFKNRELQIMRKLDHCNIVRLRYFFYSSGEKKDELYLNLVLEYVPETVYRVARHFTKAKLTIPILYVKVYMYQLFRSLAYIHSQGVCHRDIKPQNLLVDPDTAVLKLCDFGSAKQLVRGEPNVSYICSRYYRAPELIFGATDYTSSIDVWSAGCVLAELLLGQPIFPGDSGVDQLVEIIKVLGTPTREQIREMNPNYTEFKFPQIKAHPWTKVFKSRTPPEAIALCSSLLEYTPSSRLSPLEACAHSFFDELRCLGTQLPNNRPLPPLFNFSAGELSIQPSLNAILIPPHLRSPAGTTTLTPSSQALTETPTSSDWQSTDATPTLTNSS
T7 sequence (P51617 whole entry): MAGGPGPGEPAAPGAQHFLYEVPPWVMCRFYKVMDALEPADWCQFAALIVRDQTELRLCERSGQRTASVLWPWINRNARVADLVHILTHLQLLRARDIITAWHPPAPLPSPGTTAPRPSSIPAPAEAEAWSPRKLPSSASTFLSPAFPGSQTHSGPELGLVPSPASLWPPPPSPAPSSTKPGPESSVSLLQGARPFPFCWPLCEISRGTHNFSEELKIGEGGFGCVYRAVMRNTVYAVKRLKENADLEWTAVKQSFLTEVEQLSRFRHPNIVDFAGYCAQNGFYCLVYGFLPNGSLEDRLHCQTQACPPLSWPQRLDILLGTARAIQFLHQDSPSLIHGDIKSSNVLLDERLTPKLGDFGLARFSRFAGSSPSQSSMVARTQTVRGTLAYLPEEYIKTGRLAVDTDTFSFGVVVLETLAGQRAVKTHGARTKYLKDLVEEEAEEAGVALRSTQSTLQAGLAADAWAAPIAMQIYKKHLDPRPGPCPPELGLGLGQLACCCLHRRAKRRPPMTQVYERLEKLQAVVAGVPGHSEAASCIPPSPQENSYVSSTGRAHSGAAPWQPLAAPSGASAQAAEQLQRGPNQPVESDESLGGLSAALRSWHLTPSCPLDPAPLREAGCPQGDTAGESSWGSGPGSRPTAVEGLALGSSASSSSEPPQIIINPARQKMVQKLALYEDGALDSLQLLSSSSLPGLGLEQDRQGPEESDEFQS

As usually defined, the pIC50 is the IC50 on a negative log10 scale, so that one unit is a factor of ten. As to `COc1cnc(COc2ccc(F)c(F)c2)cc1-c1cc2c([nH]1)CCNC2=O` [FP1-24-2, 2-(2-((3,4-difluorophenoxy)methyl)-5-methoxypyridin-4-yl)-1,5,6,7-tetrahydro-4H-pyrrolo[3,2-c]pyridin-4-one], the remaining binding at 1 µM was found to be 0.9% at CK1γ3 [1]; 4.3% at CK1γ2 [2]; 7.2% at CLK2; 0.3% on CSNK1E; 0.6% at CIT; 0% on CSNK1D. The remaining binding at 1 µM came to 1.1% on IRAK1 and 7.1% on DYRK1B. Also, the pIC50 on CK1γ2 [3] was > 7.82 and 8.65; at CK1γ2 (NLuc-CK1γ2), 7.97; against CK1γ3 [4], > 7.82 and 7.85. Besides, the β-catenin stabilization entry in the assay with β-catenin is listed as “diminished”. At GSK3α, the “GSK3α PoC @ 1 µM” value is reported as “did not inhibit”. The “phosphorylation of LRP6 at site S1490” value in the assay on LRP6 (WNT3A 30 or 60 min, compared with dimethyl sulfoxide control) is “diminished”. For the same compound, in the assay with LRP6 (then exposed to WNT3A 30 or 60 min), the “LRP6 phosphorylation at T1479” value is listed as “did not increase”. Moreover, on GSK3β, the “GSK3β PoC @ 1 µM” value is “did not inhibit”.

Source of the values: paper PMC9157009, “Protein proximity networks and functional evaluation of the casein kinase 1 gamma family reveal unique roles for CK1γ3 in WNT signaling” (The Journal of Biological Chemistry, 2022).
